For this data set the following is noted: human, in vivo, iv.

Method: The kinetics of the glucose infusion was studied to characterize how effectively the volunteers handled the glucose molecules as well as the accompanying water volume. […] 2003, 90, 600-607, in which the plasma concentration of glucose above baseline (C) at any time (t) resulting from the infusion rate ki is calculated by using the following differential equation: (dC)/(dt) = (ki -(CL×C(t)))/(Vd) [formula] in which Vd is the volume of distribution and CL is the glucose clearance.
The data were normally distributed and thus results were expressed as the mean and standard deviation (SD). Correlations were evaluated by linear regression analysis. P < 0.05 was considered statistically significant.

On to D-glucose, for which the “Vd, volume of distribution of exogenous glucose” value stood at 15.52 L.

For the origin of these results see patent EP2295964A1, “Irrigation solution” (priority 2009, dated 2011).
